Experimental data published in PMC8213057, “Targeting ALK2: An Open Science Approach to Developing Therapeutics for the Treatment of Diffuse Intrinsic Pontine Glioma” (Journal of Medicinal Chemistry, 2020).

Columns and labels:
[1] = biological target: CK2a2 (Homo sapiens, UniProt P19784); conditions: 1 μM; Run 1, Run 2
[2] = biological target: T1, TAK1 (Homo sapiens, UniProt O43318); conditions: 1 μM; Run 1, Run 2
T1 sequence (O43318 1-303 limits assumed): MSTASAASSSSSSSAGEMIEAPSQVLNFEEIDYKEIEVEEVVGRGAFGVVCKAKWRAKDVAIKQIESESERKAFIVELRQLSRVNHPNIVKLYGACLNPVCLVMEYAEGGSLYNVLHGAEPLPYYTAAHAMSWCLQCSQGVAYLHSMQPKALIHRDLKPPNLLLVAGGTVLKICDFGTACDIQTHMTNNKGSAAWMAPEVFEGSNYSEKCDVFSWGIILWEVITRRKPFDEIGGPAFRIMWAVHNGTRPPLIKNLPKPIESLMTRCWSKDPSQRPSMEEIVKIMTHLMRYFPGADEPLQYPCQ

[3] = biological target: ROS/ROS1 (Homo sapiens, UniProt P08922); test: biochemical; conditions: read-out: % enzyme activity, 1 μM; Run 1, Run 2
[4] = biological target: MEK2 (Homo sapiens, UniProt P36507); conditions: 1 μM; Run 1, Run 2
[5] = biological target: TYK1/LTK (Homo sapiens, UniProt P29376); test: biochemical; conditions: read-out: % enzyme activity, 1 μM; Run 1, Run 2
[6] = biological target: T2, GRK7 (Homo sapiens, UniProt Q8WTQ7); conditions: 1 μM; Run 1, Run 2
T2 sequence (Q8WTQ7 1-553): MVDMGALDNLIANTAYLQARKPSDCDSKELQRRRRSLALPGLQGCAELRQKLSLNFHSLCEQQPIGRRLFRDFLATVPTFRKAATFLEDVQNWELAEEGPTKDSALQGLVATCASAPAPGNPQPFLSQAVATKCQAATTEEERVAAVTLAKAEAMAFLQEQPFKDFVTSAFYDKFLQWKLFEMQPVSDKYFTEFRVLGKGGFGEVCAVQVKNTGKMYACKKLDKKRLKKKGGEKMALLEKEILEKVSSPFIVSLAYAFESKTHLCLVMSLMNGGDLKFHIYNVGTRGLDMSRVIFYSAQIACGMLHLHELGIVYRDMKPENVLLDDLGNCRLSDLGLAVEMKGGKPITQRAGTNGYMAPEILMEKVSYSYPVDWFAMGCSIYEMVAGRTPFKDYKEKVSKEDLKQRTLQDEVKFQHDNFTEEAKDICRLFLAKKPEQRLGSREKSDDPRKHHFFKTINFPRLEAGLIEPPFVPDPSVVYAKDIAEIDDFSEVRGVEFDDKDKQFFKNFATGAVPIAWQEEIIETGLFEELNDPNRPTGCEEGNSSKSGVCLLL

[7] = biological target: T3, ULK3 (Homo sapiens, UniProt Q6PHR2); test: biochemical; conditions: read-out: % enzyme activity, 1 μM; Run 1, Run 2
T3 sequence (Q6PHR2 1-472): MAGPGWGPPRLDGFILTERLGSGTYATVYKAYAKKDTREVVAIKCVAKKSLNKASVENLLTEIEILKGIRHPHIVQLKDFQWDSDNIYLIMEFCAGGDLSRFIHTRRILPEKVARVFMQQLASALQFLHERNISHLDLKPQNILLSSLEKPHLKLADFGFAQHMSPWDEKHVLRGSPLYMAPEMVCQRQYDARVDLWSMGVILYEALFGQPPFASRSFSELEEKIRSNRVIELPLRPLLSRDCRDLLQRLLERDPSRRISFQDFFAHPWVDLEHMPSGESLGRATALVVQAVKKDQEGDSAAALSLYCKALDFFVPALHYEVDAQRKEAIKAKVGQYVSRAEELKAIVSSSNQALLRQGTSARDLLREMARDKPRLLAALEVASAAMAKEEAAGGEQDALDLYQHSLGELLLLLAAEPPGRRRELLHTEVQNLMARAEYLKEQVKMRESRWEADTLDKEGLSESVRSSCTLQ

[8] = biological target: MLK1/MAP3K9 (Homo sapiens, UniProt P80192); test: biochemical; conditions: read-out: % enzyme activity, 1 μM; Run 1, Run 2
[9] = biological target: T4, SGK3/SGKL (Homo sapiens, UniProt Q96BR1); test: biochemical; conditions: read-out: % enzyme activity, 1 μM; Run 1, Run 2
T4 sequence (Q96BR1 1-496): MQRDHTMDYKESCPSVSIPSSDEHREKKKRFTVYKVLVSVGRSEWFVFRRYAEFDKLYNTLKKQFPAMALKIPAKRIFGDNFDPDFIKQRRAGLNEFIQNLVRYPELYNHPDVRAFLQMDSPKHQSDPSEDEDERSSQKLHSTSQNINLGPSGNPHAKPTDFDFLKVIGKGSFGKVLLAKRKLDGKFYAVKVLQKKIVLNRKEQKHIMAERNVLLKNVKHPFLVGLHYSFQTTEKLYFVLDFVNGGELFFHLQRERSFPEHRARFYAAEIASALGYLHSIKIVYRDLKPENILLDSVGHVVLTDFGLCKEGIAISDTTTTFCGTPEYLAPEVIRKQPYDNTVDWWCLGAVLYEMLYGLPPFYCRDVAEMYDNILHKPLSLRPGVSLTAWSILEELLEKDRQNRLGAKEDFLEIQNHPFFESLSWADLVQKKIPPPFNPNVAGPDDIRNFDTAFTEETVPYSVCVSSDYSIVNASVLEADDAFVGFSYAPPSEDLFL

[10] = biological target: MNK2 (Homo sapiens, UniProt Q9HBH9); test: biochemical; conditions: read-out: % enzyme activity, 1 μM; Run 1, Run 2
MNK2, sequence (Q9HBH9 whole entry): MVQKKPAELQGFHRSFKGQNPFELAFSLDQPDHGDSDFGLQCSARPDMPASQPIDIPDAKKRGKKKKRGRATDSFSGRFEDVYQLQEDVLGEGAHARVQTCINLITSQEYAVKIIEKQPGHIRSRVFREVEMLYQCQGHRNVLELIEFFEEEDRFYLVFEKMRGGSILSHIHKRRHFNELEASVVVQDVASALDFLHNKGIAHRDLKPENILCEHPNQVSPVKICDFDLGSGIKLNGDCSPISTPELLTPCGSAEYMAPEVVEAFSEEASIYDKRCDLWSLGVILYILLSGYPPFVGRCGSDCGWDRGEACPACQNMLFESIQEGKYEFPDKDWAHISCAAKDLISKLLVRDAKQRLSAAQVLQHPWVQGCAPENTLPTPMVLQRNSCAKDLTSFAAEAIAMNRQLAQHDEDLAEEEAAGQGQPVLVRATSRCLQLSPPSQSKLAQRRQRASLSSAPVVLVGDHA

ROS/ROS1, sequence (P08922 28-2347): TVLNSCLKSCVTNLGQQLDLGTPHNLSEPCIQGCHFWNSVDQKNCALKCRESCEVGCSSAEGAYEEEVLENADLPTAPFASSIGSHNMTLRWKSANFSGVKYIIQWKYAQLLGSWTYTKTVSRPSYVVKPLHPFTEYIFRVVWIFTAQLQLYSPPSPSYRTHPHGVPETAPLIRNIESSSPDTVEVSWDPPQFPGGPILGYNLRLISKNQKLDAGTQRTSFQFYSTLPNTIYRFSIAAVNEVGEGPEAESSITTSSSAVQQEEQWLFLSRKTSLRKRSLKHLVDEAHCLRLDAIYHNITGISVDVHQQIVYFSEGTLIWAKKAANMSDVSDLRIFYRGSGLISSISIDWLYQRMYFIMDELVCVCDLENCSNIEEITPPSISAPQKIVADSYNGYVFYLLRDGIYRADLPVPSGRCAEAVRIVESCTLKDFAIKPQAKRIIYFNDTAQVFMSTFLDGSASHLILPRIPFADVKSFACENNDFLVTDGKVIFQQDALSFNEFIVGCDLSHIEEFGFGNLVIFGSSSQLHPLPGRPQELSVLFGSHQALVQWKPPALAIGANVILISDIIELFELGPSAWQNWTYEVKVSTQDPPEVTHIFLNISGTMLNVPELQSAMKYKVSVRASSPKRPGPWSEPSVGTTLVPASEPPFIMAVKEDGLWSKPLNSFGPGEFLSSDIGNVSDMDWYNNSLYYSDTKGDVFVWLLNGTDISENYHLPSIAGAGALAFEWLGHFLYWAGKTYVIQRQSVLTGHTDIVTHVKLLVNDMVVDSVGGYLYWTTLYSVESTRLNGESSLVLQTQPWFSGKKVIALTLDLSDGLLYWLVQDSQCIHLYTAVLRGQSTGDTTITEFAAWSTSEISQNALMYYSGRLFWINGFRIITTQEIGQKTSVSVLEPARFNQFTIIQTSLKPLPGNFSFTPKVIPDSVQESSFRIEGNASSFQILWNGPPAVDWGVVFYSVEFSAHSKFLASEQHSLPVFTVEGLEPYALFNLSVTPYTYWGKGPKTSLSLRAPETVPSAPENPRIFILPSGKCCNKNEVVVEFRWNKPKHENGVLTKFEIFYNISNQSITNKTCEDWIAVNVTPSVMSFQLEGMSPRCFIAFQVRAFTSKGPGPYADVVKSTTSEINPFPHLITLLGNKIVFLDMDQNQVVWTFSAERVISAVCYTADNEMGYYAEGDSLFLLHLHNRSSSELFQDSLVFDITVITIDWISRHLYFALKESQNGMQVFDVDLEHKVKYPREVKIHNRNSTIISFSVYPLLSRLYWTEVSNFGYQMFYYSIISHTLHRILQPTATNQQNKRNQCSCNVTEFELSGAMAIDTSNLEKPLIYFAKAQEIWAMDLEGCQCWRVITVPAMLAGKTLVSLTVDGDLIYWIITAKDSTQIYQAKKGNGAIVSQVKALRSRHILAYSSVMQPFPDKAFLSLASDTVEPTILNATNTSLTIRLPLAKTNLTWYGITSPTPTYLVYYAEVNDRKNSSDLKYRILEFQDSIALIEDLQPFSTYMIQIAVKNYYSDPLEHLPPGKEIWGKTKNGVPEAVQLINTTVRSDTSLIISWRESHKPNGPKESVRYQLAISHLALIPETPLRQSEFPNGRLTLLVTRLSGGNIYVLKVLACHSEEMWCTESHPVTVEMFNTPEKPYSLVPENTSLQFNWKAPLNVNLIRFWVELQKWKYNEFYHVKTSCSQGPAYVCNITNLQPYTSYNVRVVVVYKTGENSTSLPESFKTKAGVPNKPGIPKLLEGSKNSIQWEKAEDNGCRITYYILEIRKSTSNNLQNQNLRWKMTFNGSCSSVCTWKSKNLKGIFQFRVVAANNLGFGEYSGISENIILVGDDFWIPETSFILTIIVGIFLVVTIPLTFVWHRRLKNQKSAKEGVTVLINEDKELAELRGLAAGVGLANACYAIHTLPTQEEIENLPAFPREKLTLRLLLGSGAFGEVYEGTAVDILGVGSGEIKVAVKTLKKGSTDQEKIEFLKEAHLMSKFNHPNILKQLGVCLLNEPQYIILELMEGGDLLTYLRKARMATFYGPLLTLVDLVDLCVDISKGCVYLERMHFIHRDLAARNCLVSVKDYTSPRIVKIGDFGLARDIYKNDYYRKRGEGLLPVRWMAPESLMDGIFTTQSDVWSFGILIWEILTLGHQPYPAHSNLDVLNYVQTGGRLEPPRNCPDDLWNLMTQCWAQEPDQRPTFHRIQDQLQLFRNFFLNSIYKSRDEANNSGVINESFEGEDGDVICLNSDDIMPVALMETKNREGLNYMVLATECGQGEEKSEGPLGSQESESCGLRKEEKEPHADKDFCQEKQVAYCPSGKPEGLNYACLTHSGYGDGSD
MEK2, sequence (P36507 whole entry): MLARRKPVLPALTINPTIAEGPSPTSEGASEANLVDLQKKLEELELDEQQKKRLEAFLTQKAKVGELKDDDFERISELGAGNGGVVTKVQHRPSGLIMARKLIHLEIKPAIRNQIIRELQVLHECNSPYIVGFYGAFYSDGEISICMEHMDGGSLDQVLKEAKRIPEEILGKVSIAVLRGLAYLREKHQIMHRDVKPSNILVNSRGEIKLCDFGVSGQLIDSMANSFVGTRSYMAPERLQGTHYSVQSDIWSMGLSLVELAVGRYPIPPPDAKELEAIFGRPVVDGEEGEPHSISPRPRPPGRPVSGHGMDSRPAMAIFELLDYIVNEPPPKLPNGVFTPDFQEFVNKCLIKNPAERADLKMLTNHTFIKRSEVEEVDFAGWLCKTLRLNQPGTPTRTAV
CK2a2, sequence (P19784 whole entry): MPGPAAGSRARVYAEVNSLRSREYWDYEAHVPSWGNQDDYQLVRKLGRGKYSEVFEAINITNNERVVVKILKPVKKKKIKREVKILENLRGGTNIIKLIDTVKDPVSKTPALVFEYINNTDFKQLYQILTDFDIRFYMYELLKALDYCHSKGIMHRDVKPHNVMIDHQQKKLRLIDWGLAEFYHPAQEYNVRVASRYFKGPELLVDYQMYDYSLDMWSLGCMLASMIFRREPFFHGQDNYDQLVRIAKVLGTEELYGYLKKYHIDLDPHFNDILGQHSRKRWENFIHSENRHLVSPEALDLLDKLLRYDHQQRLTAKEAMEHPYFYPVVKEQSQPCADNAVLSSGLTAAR
TYK1/LTK, sequence (P29376 17-864): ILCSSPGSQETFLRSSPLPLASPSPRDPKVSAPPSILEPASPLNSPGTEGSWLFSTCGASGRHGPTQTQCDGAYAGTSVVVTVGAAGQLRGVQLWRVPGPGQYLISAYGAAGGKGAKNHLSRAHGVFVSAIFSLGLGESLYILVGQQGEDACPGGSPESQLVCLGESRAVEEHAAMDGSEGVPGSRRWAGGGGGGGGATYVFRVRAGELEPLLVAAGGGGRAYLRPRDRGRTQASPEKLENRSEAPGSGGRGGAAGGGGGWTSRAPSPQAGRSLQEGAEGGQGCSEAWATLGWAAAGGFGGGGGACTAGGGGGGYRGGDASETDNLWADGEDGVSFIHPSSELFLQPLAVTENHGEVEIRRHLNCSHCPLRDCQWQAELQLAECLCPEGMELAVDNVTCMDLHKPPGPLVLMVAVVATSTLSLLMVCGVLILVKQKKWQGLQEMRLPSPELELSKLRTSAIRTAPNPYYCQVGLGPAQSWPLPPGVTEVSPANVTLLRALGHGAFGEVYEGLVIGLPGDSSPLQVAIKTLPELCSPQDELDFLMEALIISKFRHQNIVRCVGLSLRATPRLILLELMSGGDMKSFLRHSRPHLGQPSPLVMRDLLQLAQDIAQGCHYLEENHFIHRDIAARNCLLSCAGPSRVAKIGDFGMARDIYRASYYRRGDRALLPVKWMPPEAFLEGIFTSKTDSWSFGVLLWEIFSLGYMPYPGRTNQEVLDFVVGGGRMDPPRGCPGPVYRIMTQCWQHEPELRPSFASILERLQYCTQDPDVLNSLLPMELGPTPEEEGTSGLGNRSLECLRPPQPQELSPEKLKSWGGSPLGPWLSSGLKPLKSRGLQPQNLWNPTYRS

| SMILES | % enzyme activity [1] | % enzyme activity [2] | remaining activity at 1 µM [3] | % enzyme activity [4] | remaining activity at 1 µM [5] | % enzyme activity [6] | remaining activity at 1 µM [7] | remaining activity at 1 µM [8] | remaining activity at 1 µM [9] | remaining activity at 1 µM [10] |
| --- | --- | --- | --- | --- | --- | --- | --- | --- | --- | --- |
| COc1cc(-c2cncc(-c3ccc(N4CCN(C)CC4)cc3)c2C)cc(F)c1C(N)=O [Compound 26a, 2-Fluoro-6-methoxy-4-(4-methyl-5-(4-(4-methylpiperazin-1-yl)phenyl)pyridin-3-yl)benzamide] | 92.27% | 97.44% | 87.7% | 85.87% | 99% | 93.81% | 91.5% | 112% | 103% | 48.2% |
| COc1cc(-c2cncc(-c3ccc(N4C[C@@H](C)N(C)[C@@H](C)C4)cc3)c2C)cc(F)c1C(N)=O [Compound 26c, 2-Fluoro-6-methoxy-4-(4-methyl-5-(4-((3R,5S)-3,4,5-trimethylpiperazin-1-yl)phenyl)pyridin-3-yl)benzamide] | 98.98% | 98.46% | 97.4% | 91.58% | 99.3% | 91.35% | 98.8% | 99.8% | 94.8% | 70.8% |
